Assay results: ChEMBL document CHEMBL1133363, “Discovery and evaluation of potent, tyrosine-based alpha4beta1 integrin antagonists” (Bioorg Med Chem Lett, 2000)
One block for each molecule: values may come before it. Square brackets hold non-standard residues; d marks the D form. Peptide text beside a SMILES is read from it. Thz = O=C(O)[C@@H]1CSCN1

Experiments:
Integrin alpha-4/beta-1 [1] = target: T1, Integrin alpha-4/beta-1 (Homo sapiens, UniProt P05556+P13612); assay: Affinity for alpha4-beta1 integrin from HL60 cell lysate; assay type: cell-based, HL-60
T1 sequence (P05556 whole entry, one chain of several): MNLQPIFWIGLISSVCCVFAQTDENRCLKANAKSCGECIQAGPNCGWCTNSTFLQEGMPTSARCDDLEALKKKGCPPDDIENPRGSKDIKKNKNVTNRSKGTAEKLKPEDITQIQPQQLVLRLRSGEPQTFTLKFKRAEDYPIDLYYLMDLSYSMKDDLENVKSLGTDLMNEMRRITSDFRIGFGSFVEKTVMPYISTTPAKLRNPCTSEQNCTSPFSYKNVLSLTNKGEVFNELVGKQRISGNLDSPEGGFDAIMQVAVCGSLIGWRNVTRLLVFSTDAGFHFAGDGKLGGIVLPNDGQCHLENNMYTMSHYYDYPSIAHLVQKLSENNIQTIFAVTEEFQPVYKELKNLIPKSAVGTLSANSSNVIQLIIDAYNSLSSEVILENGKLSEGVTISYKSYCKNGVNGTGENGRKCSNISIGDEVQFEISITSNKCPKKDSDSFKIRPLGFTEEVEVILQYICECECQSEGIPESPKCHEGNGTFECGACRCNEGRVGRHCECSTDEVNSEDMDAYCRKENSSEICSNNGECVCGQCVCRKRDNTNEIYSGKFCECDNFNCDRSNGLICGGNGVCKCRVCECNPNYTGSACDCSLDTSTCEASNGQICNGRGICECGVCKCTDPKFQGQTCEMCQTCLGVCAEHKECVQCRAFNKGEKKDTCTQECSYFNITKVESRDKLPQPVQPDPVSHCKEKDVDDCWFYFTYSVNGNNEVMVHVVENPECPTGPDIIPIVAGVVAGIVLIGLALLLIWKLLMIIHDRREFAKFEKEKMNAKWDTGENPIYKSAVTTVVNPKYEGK

Integrin alpha-4/beta-1 [2] = target: T1, Integrin alpha-4/beta-1; assay: Inhibition of alpha4-beta1 VCAM binding in Jurkat cell adhesion assay; assay type: cell-based
[3] = Half life stability of compound was evaluated in rat plasma; assay type: ADME, organism-based
[4] = target: Intercellular adhesion molecule (ICAM-1), Integrin alpha-L/beta-2 (Homo sapiens, UniProt P05107+P05362+P20701); assay: Inhibition of alphaL-beta2 mediated cell adhesion; assay type: protein-complex assay
Chain of Intercellular adhesion molecule (ICAM-1), Integrin alpha-L/beta-2 (P20701 whole entry): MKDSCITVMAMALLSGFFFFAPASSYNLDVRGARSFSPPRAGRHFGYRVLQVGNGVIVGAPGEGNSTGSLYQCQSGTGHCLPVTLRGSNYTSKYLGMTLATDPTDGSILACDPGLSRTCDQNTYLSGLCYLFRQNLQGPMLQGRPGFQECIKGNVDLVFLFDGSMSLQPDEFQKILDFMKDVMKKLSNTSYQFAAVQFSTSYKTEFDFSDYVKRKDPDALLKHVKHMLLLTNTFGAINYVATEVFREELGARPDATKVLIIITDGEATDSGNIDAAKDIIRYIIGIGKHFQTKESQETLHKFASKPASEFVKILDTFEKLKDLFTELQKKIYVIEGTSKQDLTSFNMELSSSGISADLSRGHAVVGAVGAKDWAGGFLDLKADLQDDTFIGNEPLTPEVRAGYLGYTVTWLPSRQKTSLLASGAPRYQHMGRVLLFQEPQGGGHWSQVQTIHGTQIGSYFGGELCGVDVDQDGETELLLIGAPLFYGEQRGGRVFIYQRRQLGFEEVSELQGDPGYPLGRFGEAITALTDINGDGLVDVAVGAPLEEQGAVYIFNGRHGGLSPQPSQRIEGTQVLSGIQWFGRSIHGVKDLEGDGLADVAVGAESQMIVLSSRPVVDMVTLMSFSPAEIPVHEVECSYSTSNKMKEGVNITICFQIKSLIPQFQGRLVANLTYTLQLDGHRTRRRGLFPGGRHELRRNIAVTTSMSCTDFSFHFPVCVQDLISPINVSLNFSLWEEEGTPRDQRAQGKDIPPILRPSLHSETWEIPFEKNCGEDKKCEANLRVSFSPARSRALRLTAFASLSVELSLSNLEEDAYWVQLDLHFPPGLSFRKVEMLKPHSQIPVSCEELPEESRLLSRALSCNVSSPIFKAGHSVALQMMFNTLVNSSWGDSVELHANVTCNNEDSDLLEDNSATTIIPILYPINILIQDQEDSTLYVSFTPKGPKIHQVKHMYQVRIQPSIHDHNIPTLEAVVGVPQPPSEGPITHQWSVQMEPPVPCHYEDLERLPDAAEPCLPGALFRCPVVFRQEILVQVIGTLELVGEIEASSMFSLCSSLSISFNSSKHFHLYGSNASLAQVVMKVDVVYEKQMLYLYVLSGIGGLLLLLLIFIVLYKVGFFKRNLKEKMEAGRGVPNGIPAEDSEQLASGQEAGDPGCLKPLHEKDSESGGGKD
Chain of Intercellular adhesion molecule (ICAM-1), Integrin alpha-L/beta-2 (P05362 whole entry): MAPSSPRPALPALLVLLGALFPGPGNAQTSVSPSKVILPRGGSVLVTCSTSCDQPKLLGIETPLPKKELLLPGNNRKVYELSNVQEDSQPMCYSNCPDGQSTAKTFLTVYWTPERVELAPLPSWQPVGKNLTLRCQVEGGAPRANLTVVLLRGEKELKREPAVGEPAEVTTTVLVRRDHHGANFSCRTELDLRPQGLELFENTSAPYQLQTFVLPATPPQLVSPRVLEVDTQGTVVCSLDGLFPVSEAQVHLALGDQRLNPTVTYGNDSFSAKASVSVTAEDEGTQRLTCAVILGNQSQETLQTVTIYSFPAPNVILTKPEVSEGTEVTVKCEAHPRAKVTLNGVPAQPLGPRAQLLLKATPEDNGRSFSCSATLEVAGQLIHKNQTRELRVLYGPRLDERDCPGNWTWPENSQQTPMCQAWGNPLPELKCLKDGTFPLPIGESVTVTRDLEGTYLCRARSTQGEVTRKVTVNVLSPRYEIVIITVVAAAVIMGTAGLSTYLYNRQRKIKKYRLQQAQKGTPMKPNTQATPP
Chain of Intercellular adhesion molecule (ICAM-1), Integrin alpha-L/beta-2 (P05107 whole entry): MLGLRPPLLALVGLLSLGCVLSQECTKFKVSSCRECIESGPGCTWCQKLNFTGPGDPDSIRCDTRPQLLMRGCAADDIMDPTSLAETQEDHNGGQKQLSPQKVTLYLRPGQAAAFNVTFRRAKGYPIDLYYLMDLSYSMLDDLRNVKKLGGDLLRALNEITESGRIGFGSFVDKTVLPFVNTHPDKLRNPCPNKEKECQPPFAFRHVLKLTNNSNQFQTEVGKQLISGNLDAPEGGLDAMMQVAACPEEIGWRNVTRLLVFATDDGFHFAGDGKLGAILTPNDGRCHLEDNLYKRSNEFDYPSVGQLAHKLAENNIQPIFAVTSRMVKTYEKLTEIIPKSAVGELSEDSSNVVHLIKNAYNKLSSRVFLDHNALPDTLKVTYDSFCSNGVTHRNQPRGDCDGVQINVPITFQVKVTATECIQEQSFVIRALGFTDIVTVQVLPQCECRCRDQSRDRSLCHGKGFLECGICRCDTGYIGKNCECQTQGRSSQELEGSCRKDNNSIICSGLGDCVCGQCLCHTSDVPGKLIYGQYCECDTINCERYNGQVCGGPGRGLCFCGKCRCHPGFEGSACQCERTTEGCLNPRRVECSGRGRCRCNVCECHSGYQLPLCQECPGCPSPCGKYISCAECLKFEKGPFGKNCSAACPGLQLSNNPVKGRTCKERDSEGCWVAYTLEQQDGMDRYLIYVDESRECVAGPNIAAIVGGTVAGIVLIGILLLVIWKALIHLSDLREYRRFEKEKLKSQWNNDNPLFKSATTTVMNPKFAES

Integrin alpha-5/beta-1 = Integrin alpha-5/beta-1 (Homo sapiens, UniProt P05556+P08648); assay: Inhibition of alpha5-beta1 integrin mediated cell adhesion; assay type: protein-complex assay
Chain of Integrin alpha-5/beta-1 (P05556 21-798 limits assumed): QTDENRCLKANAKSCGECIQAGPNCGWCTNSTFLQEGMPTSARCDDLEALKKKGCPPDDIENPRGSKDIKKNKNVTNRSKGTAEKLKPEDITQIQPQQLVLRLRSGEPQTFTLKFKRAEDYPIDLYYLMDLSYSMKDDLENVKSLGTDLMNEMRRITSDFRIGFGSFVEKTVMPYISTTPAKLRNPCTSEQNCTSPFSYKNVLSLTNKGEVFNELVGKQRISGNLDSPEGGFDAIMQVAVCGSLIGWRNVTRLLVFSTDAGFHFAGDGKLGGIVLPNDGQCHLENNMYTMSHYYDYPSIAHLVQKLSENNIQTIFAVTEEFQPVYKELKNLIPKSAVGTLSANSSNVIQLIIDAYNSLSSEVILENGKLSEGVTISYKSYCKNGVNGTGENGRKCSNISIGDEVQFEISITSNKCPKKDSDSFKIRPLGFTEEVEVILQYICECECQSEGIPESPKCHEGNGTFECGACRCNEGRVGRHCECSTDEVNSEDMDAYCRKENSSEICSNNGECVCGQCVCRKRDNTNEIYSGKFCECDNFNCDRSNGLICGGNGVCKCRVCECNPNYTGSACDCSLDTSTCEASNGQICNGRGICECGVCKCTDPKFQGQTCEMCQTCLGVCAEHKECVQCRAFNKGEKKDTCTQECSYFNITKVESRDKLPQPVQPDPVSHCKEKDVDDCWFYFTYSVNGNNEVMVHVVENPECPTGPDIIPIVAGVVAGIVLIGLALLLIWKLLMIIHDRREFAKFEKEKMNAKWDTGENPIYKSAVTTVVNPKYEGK
Chain of Integrin alpha-5/beta-1 (P08648 42-894 limits assumed): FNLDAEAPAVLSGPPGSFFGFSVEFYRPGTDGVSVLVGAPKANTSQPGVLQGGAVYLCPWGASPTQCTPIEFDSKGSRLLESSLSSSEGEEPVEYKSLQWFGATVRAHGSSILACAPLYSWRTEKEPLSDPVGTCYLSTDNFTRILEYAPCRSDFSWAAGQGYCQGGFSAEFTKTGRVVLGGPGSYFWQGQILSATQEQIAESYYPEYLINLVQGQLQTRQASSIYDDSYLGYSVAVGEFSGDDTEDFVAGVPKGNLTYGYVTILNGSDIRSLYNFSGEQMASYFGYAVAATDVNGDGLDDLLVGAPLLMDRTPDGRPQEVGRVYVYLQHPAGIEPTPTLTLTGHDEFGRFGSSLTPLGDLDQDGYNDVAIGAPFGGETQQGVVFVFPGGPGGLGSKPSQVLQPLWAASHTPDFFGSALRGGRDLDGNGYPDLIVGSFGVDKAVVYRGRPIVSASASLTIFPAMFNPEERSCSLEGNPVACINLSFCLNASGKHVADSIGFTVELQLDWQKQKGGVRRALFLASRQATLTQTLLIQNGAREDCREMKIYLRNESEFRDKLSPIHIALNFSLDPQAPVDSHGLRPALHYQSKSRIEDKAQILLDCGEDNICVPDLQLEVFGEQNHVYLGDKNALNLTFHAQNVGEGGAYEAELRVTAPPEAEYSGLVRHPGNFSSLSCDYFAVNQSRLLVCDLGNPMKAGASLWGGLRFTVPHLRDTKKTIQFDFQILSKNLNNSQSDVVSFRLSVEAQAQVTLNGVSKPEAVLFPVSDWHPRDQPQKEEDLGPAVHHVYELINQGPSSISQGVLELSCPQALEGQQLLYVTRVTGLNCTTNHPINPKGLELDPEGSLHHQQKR
Chain of Integrin alpha-5/beta-1 (P08648 895-1049 limits assumed): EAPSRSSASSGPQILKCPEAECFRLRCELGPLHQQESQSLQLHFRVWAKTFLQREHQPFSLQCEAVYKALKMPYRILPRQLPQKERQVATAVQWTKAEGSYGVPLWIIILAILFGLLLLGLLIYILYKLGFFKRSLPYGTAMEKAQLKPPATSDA

Integrin alpha-4/beta-7 = target: T2, Integrin alpha-4/beta-7 (Homo sapiens, UniProt P13612+P26010); assay: Inhibition of alpha4-beta7 integrin mediated cell adhesion; assay type: protein-complex assay
T2 sequence (P13612 whole entry): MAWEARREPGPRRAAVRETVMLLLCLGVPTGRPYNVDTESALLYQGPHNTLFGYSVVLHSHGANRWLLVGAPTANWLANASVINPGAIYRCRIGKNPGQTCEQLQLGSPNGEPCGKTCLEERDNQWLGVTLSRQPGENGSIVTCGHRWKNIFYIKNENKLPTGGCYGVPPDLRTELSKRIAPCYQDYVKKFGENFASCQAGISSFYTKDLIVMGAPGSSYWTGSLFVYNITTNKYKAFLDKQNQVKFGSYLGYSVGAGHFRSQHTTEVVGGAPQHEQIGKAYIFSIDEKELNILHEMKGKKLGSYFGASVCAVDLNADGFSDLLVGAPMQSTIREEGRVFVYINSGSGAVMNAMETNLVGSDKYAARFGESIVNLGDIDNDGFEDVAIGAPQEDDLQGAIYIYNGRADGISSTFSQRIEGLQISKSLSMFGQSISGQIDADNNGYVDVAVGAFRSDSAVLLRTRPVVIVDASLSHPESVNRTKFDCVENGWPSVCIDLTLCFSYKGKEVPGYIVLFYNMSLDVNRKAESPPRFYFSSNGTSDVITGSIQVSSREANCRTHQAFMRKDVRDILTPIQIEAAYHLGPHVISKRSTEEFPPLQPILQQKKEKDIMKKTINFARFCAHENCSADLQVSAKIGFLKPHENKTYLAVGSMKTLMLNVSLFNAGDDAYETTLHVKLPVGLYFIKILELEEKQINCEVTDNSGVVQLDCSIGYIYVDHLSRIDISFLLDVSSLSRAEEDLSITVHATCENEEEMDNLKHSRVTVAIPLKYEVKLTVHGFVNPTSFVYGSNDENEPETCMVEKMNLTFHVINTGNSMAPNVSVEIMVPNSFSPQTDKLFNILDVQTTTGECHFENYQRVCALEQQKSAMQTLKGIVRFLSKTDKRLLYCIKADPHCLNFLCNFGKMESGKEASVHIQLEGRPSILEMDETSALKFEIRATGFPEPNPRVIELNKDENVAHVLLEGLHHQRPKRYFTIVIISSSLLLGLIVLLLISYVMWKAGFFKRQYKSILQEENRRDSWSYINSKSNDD
T2 sequence (P26010 whole entry): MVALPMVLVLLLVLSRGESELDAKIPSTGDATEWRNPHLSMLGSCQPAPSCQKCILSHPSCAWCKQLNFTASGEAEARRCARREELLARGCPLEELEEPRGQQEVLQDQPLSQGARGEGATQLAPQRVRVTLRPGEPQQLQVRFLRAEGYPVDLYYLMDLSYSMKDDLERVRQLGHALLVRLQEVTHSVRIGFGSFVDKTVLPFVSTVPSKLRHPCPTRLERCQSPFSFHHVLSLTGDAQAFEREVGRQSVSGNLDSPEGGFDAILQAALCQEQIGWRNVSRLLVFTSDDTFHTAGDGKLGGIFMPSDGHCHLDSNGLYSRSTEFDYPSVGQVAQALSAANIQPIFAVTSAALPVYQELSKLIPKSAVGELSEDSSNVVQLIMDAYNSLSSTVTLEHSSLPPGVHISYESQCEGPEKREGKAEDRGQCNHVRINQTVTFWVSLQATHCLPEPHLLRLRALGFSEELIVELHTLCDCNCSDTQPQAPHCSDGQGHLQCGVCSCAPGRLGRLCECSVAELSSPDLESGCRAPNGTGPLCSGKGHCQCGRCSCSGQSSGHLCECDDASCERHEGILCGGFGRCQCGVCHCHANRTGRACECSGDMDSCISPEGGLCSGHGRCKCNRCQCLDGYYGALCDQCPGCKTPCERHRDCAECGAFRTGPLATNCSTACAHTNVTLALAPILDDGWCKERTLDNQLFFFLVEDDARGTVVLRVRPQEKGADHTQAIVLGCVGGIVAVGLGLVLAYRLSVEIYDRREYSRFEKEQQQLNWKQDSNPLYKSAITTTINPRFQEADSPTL

Integrin alpha-M/beta-2 = Integrin alpha-M/beta-2 (Homo sapiens, UniProt P05107+P11215); assay: Inhibition of alphaM-beta2 mediated cell adhesion; assay type: protein-complex assay
[5] = target: Integrin alpha-IIb/beta-3 (Homo sapiens, UniProt P05106+P08514); assay: The antagonist activity was evaluated by alphaIlb-beta3 cell assay; assay type: functional
Integrin alpha-V/beta-3 = Integrin alpha-V/beta-3 (Homo sapiens, UniProt P05106+P06756); assay: Inhibition of alphaV-beta3 mediated cell adhesion; assay type: protein-complex assay

Structure (SMILES): COc1cccc(OC)c1COc1ccc(C[C@H](NC(=O)[C@H]2CSCN2C(C)=O)C(=O)O)cc1
IC50 (Integrin alpha-4/beta-1 [1]): 2 nM | IC50 (Integrin alpha-4/beta-1 [2]): 40 nM

Structure (SMILES): CC(=O)N1CSC[C@@H]1C(=O)N[C@@H](Cc1ccc(OC(=O)c2ccccc2)cc1)C(=O)O
half-life [3]: 1.6 h | IC50 (Integrin alpha-4/beta-1 [1]): 4 nM | IC50 (Integrin alpha-4/beta-1 [2]): 170 nM

Structure (SMILES): CC(=O)N1CSC[C@@H]1C(=O)N[C@@H](Cc1ccc(OC(=O)C23CC4CC(CC(C4)C2)C3)cc1)C(=O)O
half-life [3]: 2.3 h | IC50 (Integrin alpha-4/beta-1 [1]): 12 nM | IC50 (Integrin alpha-4/beta-1 [2]): 140 nM

Structure (SMILES): CC(=O)N1CSC[C@@H]1C(=O)N[C@@H](Cc1ccc(OCc2ccccc2C(F)(F)F)cc1)C(=O)O
IC50 (Integrin alpha-4/beta-1 [1]): 15 nM | IC50 (Integrin alpha-4/beta-1 [2]): 170 nM

Structure (SMILES): CC(=O)N1CSC[C@@H]1C(=O)N[C@@H](Cc1ccc(OCc2c(Cl)cccc2Cl)cc1)C(=O)O
half-life [3]: > 12 h | IC50 (Integrin alpha-4/beta-1 [1]): 5 nM | IC50 [4]: > 200000 nM | IC50 (Integrin alpha-5/beta-1): > 800000 nM | IC50 (Integrin alpha-4/beta-1 [2]): 34 nM | IC50 (Integrin alpha-4/beta-7): 190 nM | IC50 (Integrin alpha-M/beta-2): > 400000 nM | IC50 [5]: > 400000 nM | IC50 (Integrin alpha-V/beta-3): > 800000 nM

Structure (SMILES): CC(=O)N1CSC[C@@H]1C(=O)N[C@@H](Cc1ccc(OCc2cc(Cl)cc(Cl)c2)cc1)C(=O)O
IC50 (Integrin alpha-4/beta-1 [1]): 17 nM | IC50 (Integrin alpha-4/beta-1 [2]): 150 nM

Structure (SMILES): CC(=O)N1CSC[C@H]1C(=O)N[C@@H](Cc1ccc(OCc2ccccc2)cc1)C(=O)O
IC50 (Integrin alpha-4/beta-1 [1]): 220 nM | IC50 (Integrin alpha-4/beta-1 [2]): 19500 nM

Structure (SMILES): CC(=O)N1CSC[C@H]1C(=O)N[C@@H](Cc1ccc(O)cc1)C(=O)O (Ac-[Thz]-Tyr-OH)
IC50 (Integrin alpha-4/beta-1 [1]): 2740 nM | IC50 (Integrin alpha-4/beta-1 [2]): 263000 nM

Continued by falling IC50 (Integrin alpha-4/beta-1 [1]), values first:

IC50 (Integrin alpha-4/beta-1 [1]): 360 nM | IC50 (Integrin alpha-4/beta-1 [2]): 35200 nM
Structure (SMILES): CC(=O)N1CSC[C@H]1C(=O)N[C@@H](Cc1ccccc1)C(=O)O (Ac-[Thz]-Phe-OH)

IC50 (Integrin alpha-4/beta-1 [1]): 310 nM | IC50 (Integrin alpha-4/beta-1 [2]): 76600 nM
Structure (SMILES): COc1ccc(C[C@H](NC(=O)[C@@H]2CSCN2C(C)=O)C(=O)O)cc1 (Ac-[Thz]-Tyr(Me)-OH)

IC50 (Integrin alpha-4/beta-1 [1]): 90 nM | IC50 (Integrin alpha-4/beta-1 [2]): 8040 nM
Structure (SMILES): CC(=O)N1CSC[C@H]1C(=O)N[C@@H](CSCCCNC(=O)C12CC3CC(CC(C3)C1)C2)C(=O)O

half-life [3]: > 12 h | IC50 (Integrin alpha-4/beta-1 [1]): 25 nM | IC50 (Integrin alpha-4/beta-1 [2]): 1480 nM
Structure (SMILES): CC(=O)N1CSC[C@@H]1C(=O)N[C@@H](Cc1ccc(OCc2ccccc2)cc1)C(=O)O

IC50 (Integrin alpha-4/beta-1 [1]): 9 nM | IC50 (Integrin alpha-4/beta-1 [2]): 35 nM
Structure (SMILES): CC(=O)N1CSC[C@@H]1C(=O)N[C@@H](Cc1ccc(OCc2c(Cl)cc(Cl)cc2Cl)cc1)C(=O)O

half-life [3]: > 12 h | IC50 (Integrin alpha-4/beta-1 [1]): 6 nM | IC50 (Integrin alpha-4/beta-1 [2]): 24 nM
Structure (SMILES): CC(=O)N1CSC[C@@H]1C(=O)N[C@@H](Cc1ccc(OC(=O)c2c(Cl)cccc2Cl)cc1)C(=O)O

IC50 (Integrin alpha-4/beta-1 [1]): 3 nM | IC50 (Integrin alpha-4/beta-1 [2]): 60 nM
Structure (SMILES): CC(=O)N1CSC[C@@H]1C(=O)N[C@@H](Cc1ccc(OCc2c(F)cccc2F)cc1)C(=O)O
